The source made the active and inactive calls. The calls are words filed in the database; no cut-off is given here.
Experiments:
MGC-803 [1] = assay: Antiproliferative activity against human MGC803 cells assessed as inhibition of cell growth incubated for 48 hrs by MTT assay; type: functional, cell-based; conditions: for IC50: MGC-803, 48 h
ECa-109 cell line = assay: Antiproliferative activity against human EC109 cells assessed as inhibition of cell growth incubated for 48 hrs by MTT assay; type: functional, cell-based; conditions: ECa-109, 48 h
PC-3 = assay: Antiproliferative activity against human PC3 cells assessed as inhibition of cell growth incubated for 48 hrs by MTT assay; type: functional, cell-based; conditions: PC-3, 48 h
[2] = molecular target: T1, NEDD8-activating enzyme E1 regulatory subunit (Homo sapiens) (UniProt Q13564); assay: Inhibition of NAE (unknown origin)-mediated neddylation assessed as decrease in Nedd8-Ubcl2 adduct formation at 10 uM by Western blot analysis
T1 sequence (whole entry): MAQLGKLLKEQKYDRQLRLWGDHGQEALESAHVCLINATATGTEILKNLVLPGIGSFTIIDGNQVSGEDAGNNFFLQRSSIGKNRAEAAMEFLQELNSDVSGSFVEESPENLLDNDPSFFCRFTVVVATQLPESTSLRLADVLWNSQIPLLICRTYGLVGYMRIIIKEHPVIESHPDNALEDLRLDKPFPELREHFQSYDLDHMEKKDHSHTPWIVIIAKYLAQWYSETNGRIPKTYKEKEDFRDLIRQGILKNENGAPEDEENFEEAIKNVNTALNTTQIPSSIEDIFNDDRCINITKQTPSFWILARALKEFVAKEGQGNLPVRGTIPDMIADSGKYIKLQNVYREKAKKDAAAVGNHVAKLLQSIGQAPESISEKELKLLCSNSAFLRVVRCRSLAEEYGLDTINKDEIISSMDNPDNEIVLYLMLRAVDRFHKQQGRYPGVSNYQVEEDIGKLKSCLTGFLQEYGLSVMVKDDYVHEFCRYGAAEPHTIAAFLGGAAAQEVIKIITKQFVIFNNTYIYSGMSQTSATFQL

MGC-803 [3] = assay: Induction of apoptosis in human MGC803 cells assessed as increase in cleaved PARP expression at 5 to 20 umol/l incubated for 48 hrs by Western blot analysis; type: functional, cell-based
MGC-803 [4] = assay: Induction of apoptosis in human MGC803 cells at 5 to 20 umol/l incubated for 48 hrs by AnnexinV-FITC/PI staining based flow cytometric analysis relative to control; type: functional
[5] = molecular target: T1, NEDD8-activating enzyme E1 regulatory subunit (Homo sapiens); assay: Inhibition of NAE-mediated neddylation in human MGC803 cells assessed as reduction in Nedd8-Ubcl2 adduct formation at 10 uM incubated for 24 hrs by Western blot analysis relative to control; type: cell-based; conditions: MGC-803
MGC-803 [6] = assay: Antiproliferative activity against human MGC803 cells assessed as fold increase in cell growth at 10 umol/l incubated for 48 hrs by MTT assay relative to control; type: functional
MGC-803 [7] = assay: Upregulation in Bax protein expression in human MGC803 cells at 5 to 20 umol/l incubated for 48 hrs by Western blot analysis; type: functional, cell-based
[8] = molecular target: T1, NEDD8-activating enzyme E1 regulatory subunit (Homo sapiens); assay: (§1) Inhibition of NAE-mediated neddylation in human MGC803 cells assessed as reduction in Nedd8-Ubcl2 adduct formation incubated for 24 hrs by Western blot analysis; type: cell-based; conditions: MGC-803
[9] = molecular target: T2, NEDD8-activating enzyme E1 regulatory subunit (Homo sapiens, UniProt Q13564); assay: as §1; type: cell-based, MGC-803
T2 sequence (Q13564 whole entry): T1 sequence (whole entry)

MGC-803 [10] = assay: Inhibition of colony formation in human MGC803 cells at 0.5 uM incubated for 7 days by crystal violet staining based assay; type: functional, cell-based
[11] = molecular target: T1, NEDD8-activating enzyme E1 regulatory subunit (Homo sapiens); assay: Inhibition of NAE-mediated neddylation in human MGC803 cells assessed as reduction in NAE1-Nedd8 adduct formation at 10 uM incubated for 24 hrs by Western blot analysis; type: cell-based; conditions: MGC-803
[12] = molecular target: T1, NEDD8-activating enzyme E1 regulatory subunit (Homo sapiens); assay: Inhibition of NAE-mediated neddylation in human MGC803 cells assessed as reduction in Nedd8-Ubcl2 adduct formation at 5 uM incubated for 24 hrs by Western blot analysis; type: cell-based; conditions: MGC-803
MGC-803 [13] = assay: Increase in DR5 protein expression in human MGC803 cells at 5 to 20 umol/l incubated for 24 hrs by Western blot analysis; type: functional, cell-based
MGC-803 [14] = assay: Induction of cell cycle arrest in human MGC803 cells assessed as fold change in accumulation in G2/M phase at 5 to 20 umol/l incubated for 24 hrs by propidium iodide staining based flow cytometric analysis relative to control; type: functional
MGC-803 [15] = assay: Increase in CHOP protein expression in human MGC803 cells at 5 to 20 umol/l incubated for 24 hrs by Western blot analysis; type: functional, cell-based
MGC-803 [16] = assay: Increase in ATF4 protein expression in human MGC803 cells at 5 to 20 umol/l incubated for 24 hrs by Western blot analysis; type: functional, cell-based
[17] = molecular target: T1, NEDD8-activating enzyme E1 regulatory subunit (Homo sapiens); assay: Inhibition of NAE (unknown origin)-mediated neddylation assessed as decrease in Nedd8-Ubcl2 adduct formation at 5 uM by Western blot analysis
MGC-803 [18] = assay: Antiproliferative activity against human MGC803 cells assessed as inhibition of cell growth at 10 umol/l measured within 48 hrs of incubation by MTT assay; type: functional, cell-based
MGC-803 [19] = assay: Induction of cell cycle arrest in human MGC803 cells assessed as accumulation in G2/M phase at 5 to 20 umol/l incubated for 24 hrs by propidium iodide staining based flow cytometric analysis; type: functional
MGC-803 [20] = assay: Increase in p21 protein expression in human MGC803 cells at 5 to 20 umol/l incubated for 24 hrs by Western blot analysis; type: functional, cell-based
MGC-803 [21] = assay: Induction of apoptosis in human MGC803 cells assessed as increase in cleaved caspase9 expression at 5 to 20 umol/l incubated for 48 hrs by Western blot analysis; type: functional, cell-based
MGC-803 [22] = assay: Downregulation of CDK1 protein expression in human MGC803 cells at 5 to 20 umol/l incubated for 24 hrs by Western blot analysis; type: functional, cell-based
MGC-803 [23] = assay: Induction of apoptosis in human MGC803 cells assessed as increase in cleaved caspase3 expression at 5 to 20 umol/l incubated for 48 hrs by Western blot analysis; type: functional, cell-based
[24] = molecular target: T1, NEDD8-activating enzyme E1 regulatory subunit (Homo sapiens); assay: Inhibition of NAE-mediated neddylation in human MGC803 cells assessed as reduction in Nedd8-Cullin1 adduct formation by Western blot analysis; type: cell-based
[25] = molecular target: T1, NEDD8-activating enzyme E1 regulatory subunit (Homo sapiens); assay: Inhibition of NAE-mediated neddylation in human MGC803 cells assessed as reduction in Nedd8-Cullin3 adduct formation at 10 uM incubated for 24 hrs by Western blot analysis; type: cell-based; conditions: MGC-803
MGC-803 [26] = assay: Downregulation of XIAP protein expression in human MGC803 cells at 5 to 20 umol/l incubated for 48 hrs by Western blot analysis; type: functional, cell-based
MGC-803 [27] = assay: Downregulation of Cyclin B1 protein expression in human MGC803 cells at 5 to 20 umol/l incubated for 24 hrs by Western blot analysis; type: functional, cell-based
MGC-803 [28] = assay: Increase in Noxa protein expression in human MGC803 cells at 5 to 20 umol/l incubated for 24 hrs by Western blot analysis; type: functional, cell-based

SMILES: COc1cc(Nc2nc(Nc3ccc(C)cc3)nnc2Cl)cc(OC)c1OC
- IC50 (MGC-803 [1]): 19.8 µM
- IC50 (ECa-109 cell line): 27.3 µM
- IC50 (PC-3): 14.3 µM

SMILES: COc1cc(Nc2nc(Nc3ccc(Br)cc3)nnc2Cl)cc(OC)c1OC
- IC50 (MGC-803 [1]): 11.3 µM
- IC50 (ECa-109 cell line): 41.6 µM
- IC50 (PC-3): 8.99 µM

SMILES: COc1cc(Nc2nc(Nc3ccc(Cl)cc3)nnc2Cl)cc(OC)c1OC
- IC50 (MGC-803 [1]): 12.6 µM
- IC50 (ECa-109 cell line): 32.6 µM
- IC50 (PC-3): 9.61 µM

SMILES: NS(=O)(=O)OC[C@@H]1C[C@@H](n2ccc3c(N[C@H]4CCc5ccccc54)ncnc32)C[C@@H]1O
- inhibition [2]: Active

SMILES: COc1cc(Nc2nnc(Cl)c(Nc3cc(OC)c(OC)c(OC)c3)n2)cc(OC)c1OC
- IC50 (MGC-803 [1]): 24.3 µM
- IC50 (ECa-109 cell line): > 50 µM
- IC50 (PC-3): 34.3 µM

SMILES: COc1cccc(Nc2nnc(Cl)c(Nc3cc(OC)c(OC)c(OC)c3)n2)c1
- IC50 (MGC-803 [1]): 16.5 µM
- IC50 (ECa-109 cell line): 15.9 µM
- IC50 (PC-3): 11.3 µM

SMILES: CCOC(=O)c1ccc(Nc2nnc(Cl)c(Nc3cc(OC)c(OC)c(OC)c3)n2)cc1
- IC50 (MGC-803 [1]): 53.6 µM
- IC50 (ECa-109 cell line): 46.6 µM
- IC50 (PC-3): 58.5 µM

SMILES: COc1cc(Nc2nc(Nc3ccc4c(ccn4C)c3)nnc2Cl)cc(OC)c1OC
- IC50 (MGC-803 [1]): 28.1 µM
- IC50 (ECa-109 cell line): 42.1 µM
- IC50 (PC-3): 48.5 µM

SMILES: COc1cc(Nc2nc(Nc3ccccc3)nnc2Cl)cc(OC)c1OC
- IC50 (MGC-803 [1]): 8.75 µM
- IC50 (ECa-109 cell line): 12.6 µM
- IC50 (PC-3): 9.75 µM

SMILES: COc1cc(Nc2nc(Nc3ccc(C(N)=O)cc3)nnc2Cl)cc(OC)c1OC
- IC50 (MGC-803 [1]): 15.2 µM
- IC50 (ECa-109 cell line): 42.4 µM
- IC50 (PC-3): 32.1 µM

SMILES: COc1ccc(Nc2nnc(Cl)c(Nc3cc(OC)c(OC)c(OC)c3)n2)cc1
- IC50 (MGC-803 [1]): 18.9 µM
- IC50 (ECa-109 cell line): 22.3 µM
- IC50 (PC-3): 13.5 µM

SMILES: O=c1[nH]cc(F)c(=O)[nH]1 [FLUOROURACIL]
- IC50 (ECa-109 cell line): 21.2 µM

SMILES: COc1cc(Nc2nc(Nc3ccc4[nH]ccc4c3)nnc2Cl)cc(OC)c1OC
- Activity (MGC-803 [3]): Active
- Activity (MGC-803 [4]): 60%
- inhibition (MGC-803 [1]): Dose-dependent effect
- IC50 (MGC-803 [1]): 8.22 µM
- IC50 (ECa-109 cell line): 9.64 µM
- inhibition [5]: 100%
- fold change (FC) (MGC-803 [6]): 1.3
- Activity (MGC-803 [7]): Active
- inhibition [8]: Dose-dependent effect
- EC50 [9]: 3.56 µM
- inhibition (MGC-803 [10]): Active
- inhibition [11]: Active
- inhibition [12]: Active
- Activity (MGC-803 [13]): Active
- fold change (FC) (MGC-803 [14]): 2
- Activity (MGC-803 [15]): Active
- IC50 (PC-3): 9.28 µM
- Activity (MGC-803 [16]): Active
- inhibition [17]: Active
- Activity (MGC-803 [18]): Active
- Activity (MGC-803 [19]): Active
- Activity (MGC-803 [20]): Active
- Activity (MGC-803 [21]): Active
- inhibition (MGC-803 [22]): Active
- Activity (MGC-803 [23]): Active
- inhibition ([24]; MGC-803, TDE = time-dependent effect): Tde
- inhibition [25]: Active
- inhibition (MGC-803 [26]): Active
- inhibition (MGC-803 [27]): Active
- Activity (MGC-803 [28]): Active

SMILES: COc1cc(Nc2nc(Nc3ccc(C(C)=O)cc3)nnc2Cl)cc(OC)c1OC
- IC50 (MGC-803 [1]): 13 µM
- IC50 (ECa-109 cell line): 36.3 µM
- IC50 (PC-3): 38.6 µM

SMILES: COc1cc(Nc2nc(Cl)nnc2Cl)cc(OC)c1OC
- inhibition ([24]; MGC-803): Dose-dependent effect

— ChEMBL document CHEMBL4602611, “Discovery of 1,2,4-triazine-based derivatives as novel neddylation inhibitors and anticancer activity studies against gastric cancer MGC-803 cells” (Bioorg Med Chem Lett, 2020)
